# Legend:
# CCF-STTG1 cells = assay: Viability of CCF-STTG1 astrocytoma cells (MTT assay); type: cell-based, human; details: 100-200 μM, 72 hours
# Method: To quantify cell death, around the time when significant and characteristic morphological changes took place, cells were pulse-labeled for 10 minutes with [^3H]thymidine to measure DNA activity as described elsewhere [Tomono, M. and Kiss, Z. (1995), “Ethanol enhances the stimulatory effects of insulin and insulin-like growth factor-I on DNA synthesis in NIH 3T3 fibroblasts,” Biochem. Biophys. Res. Commun. 208, 63-67]. Also, cells were collected as suspensions using trypsin, an established method in cell biology, followed by re-plating of cells in fresh tissue culture medium. If no viable cells were obtained after one week in culture, it meant that the cells at the time of re-plating were dead. Survival values obtained with untreated cells were considered 100%. For the determination of relative number of viable cells after treatments, in most cases the MTT assay was used. This calorimetric assay is based on the ability of living cells, but not dead cells, to reduce 3-(4,5-dimethyl thiazol-2-yl)-2,5-diphenyltetrazolium bromide [Carmichael, J, De Graff, W. G., Gazdar, A. F., Minna, J. D. and Mitchell, J. B. (1987), “Evaluation of tetrazolium-based semi-automated calorimetric assay: Assessment of chemosensitivity testing,” Cancer Res. 47, 936-942]. For this assay, cells were plated in 96-well plates, and the MTT assay was performed both in untreated and treated cell cultures. […]
# MXT tumor = assay: MXT mouse mammary tumor model: tumor volume and survival; type: in vivo; details: Example 31
# From the text: (§1) Tumors were developed in first generation hybrid BDF1 (C57 B1 female×DBA/2 male) adult female mice kept at specified pathogen free (SPF) hygienic level. Suspensions of HL-60 human leukemia cells, or approximately 0.1 cm^3 volume of tumor tissue derived from HT-168 human melanoma, PC-3 human prostate adenocarcinoma, T47D human breast carcinoma, MXT mouse mammary cancer, or mouse B16 melanoma cells were implanted subcutaneously to develop the tumors. After 12-18 days when the tumor-bearing mice were first treated, the size of the tumors was in the 0.2-0.4 cm^3 range. All compounds used were dissolved in physiological (0.9%) saline (NaCl), and the agents, alone or in combinations, were applied subcutaneously or intraperitoneally in 50 μl volume. Tumor volume was determined by calipers in three dimensions; this technique is well known to one having ordinary skill in the art. Tumor volume was calculated according to the generally accepted formula: V=a^2×b×π/6, where “a” and “b” mean the shortest and longest diameter, respectively, of the measured tumor.
# The mouse mammary MXT tumor was developed as described above. On day 7 after transplantation of tumor cells, the animals were either remained untreated (group 1) or were treated with 2 mg/kg of CisPt alone (Group 2), or 4 mg/kg of CisPt alone (Group 3), or 4.6 mg/kg of CCDTHT alone (Group 4), or 2 mg/kg of CisPt+4.6 mg/kg of CCDTHT (Group 5), or 4 mg/kg of CisPt+4.6 mg/kg of CCDTHT (Group 6). CCDTHT and CisPt were administered subcutaneously and intraperitoneally, respectively, once daily for 10 days, including a 2-day rest period after 5 days of treatment (i.e., the last treatment was on day 19). Each group consisted of 7 animals, and the mean values±std. dev. for tumor volumes and body weight are shown in TABLE 4 and TABLE 5, respectively. While in this tumor model CCDTHT alone reduced the tumor volume less effectively than in the human tumor models, it clearly added to the tumor volume-reducing effect of CisPt (TABLE 4). A dramatic reduction in tumor volume was particularly evident in Group 6 (4 mg/kg CisPt+4.6 mg/kg CCDTHT).
# The mouse mammary MXT tumor model was developed and treated as described above. On day 7 the animals were either remained untreated (Group 1) or were treated with 3 mg/kg of CisPt (Group 2) or 3 mg/kg of CisPt+15 mg/kg of highly purified PALP (Group 3). CisPt and PALP were administered intraperitoneally and subcutaneously, respectively, seven times on every second day (i.e., treatments were terminated on day 21). Each group included 7 animals; the mean values±std. dev. for tumor volumes and body weight are shown in TABLE 6 and TABLE 7, respectively.
# The mouse mammary MXT tumor model was developed and treated as described above. On day 7 the animals either remained untreated (Group 1) or were treated with 3 mg/kg CisPt (Group 2), 3 mg/kg CisPt+4.6 mg/kg of CCDTHT (Group 3), or 3 mg/kg CisPt+4.6 mg/kg of CCDTHT+15 mg/kg highly purified PALP (Group 4). CisPt was administered intraperitoneally 9-times once every second day; CCDTHT was administered for 15 days once daily; and PALP was administered 3 times every 3rd day. In each group 7 mice were included. The mean values±std. dev. for tumor volumes and body weights are shown in TABLE 9 and TABLE 10, respectively.
# [1] = test system: human leukemia xenografts (HL-60); assay: HL-60 human leukemia xenograft model: tumor volume and survival; type: in vivo, mouse
# From the text: as §1
# The HL-60 human leukemia model was developed and treated as described above. On day 12 the mice either remained untreated (Group 1) or were treated with 4.6 mg/kg CCDTHT (Group 2) or 4.6 mg/kg CCDTHT+15 mg/kg highly purified PALP (Group 3). Both CCDTHT and PALP were administered subcutaneously for three 5-day cycles with 2 resting days included between each 5-day cycle. In each group 7 mice were included.
# [2] = CisPt 2 mg/kg i.p. and/or CCDTHT 4.6 mg/kg s.c., once daily
# [3] = CCDTHT 4.6 mg/kg s.c. without or with PALP 15 mg/kg s.c., 5-day cycles
structure (smiles),measurement,setting,value
"CC[N+](C)(CC)CCOCc1ccc2sc3ccccc3c(=O)c2c1.[I-] [CCDTHT, N,N-diethyl-N-methyl-2-[(9-oxo-9H-thioxanthen-2-yl)methoxy]-ethanaminium iodide]",number of viable CCF-STTG1 cells,CCF-STTG1 cells,sharply decrease
same,survival,"MXT tumor; CisPt 2 mg/kg and/or CCDTHT 4.6 mg/kg (groups 2, 4, 5)",30.6 ± 3.2 days
same,"Tumor volume, Day 14",MXT tumor; [2],4.14 ± 0.71 cm^3
same,"Tumor volume, Day 18",MXT tumor; [2],6.62 ± 0.43 cm^3
same,"Tumor volume, Day 21",MXT tumor; [2],9.35 ± 0.69 cm^3
same,"Tumor volume, Day 7","MXT tumor; CisPt 2 mg/kg i.p. and/or CCDTHT 4.6 mg/kg s.c., start of treatment",0.43 ± 0.07 cm^3
same,"Tumor volume, Day 16",[1]; [3],1.26 ± 0.73 cm^3
same,"Tumor volume, Day 22",[1]; [3],2.74 ± 0.37 cm^3
same,"Tumor volume, Day 26",[1]; [3],3.72 ± 0.44 cm^3
same,"Tumor volume, Day 12","[1]; CCDTHT 4.6 mg/kg s.c. without or with PALP 15 mg/kg s.c., start of treatment",0.46 ± 0.32 cm^3
same,survival of leukemic mice,[1]; CCDTHT 4.6 mg/kg without or with PALP 15 mg/kg,34.9 ± 6.6 days

# Reference: patent US7943606B2, “Compositions and methods to control abnormal cell growth” (CanCure Laboratories, LLC, priority 2005, dated 2011)
